From PMC11581978, “Paenilamicins are context-specific translocation inhibitors of protein synthesis” (Nature Chemical Biology, 2024)

How the values were obtained:
[1] = test system: E. coli ribosomes translating MLIFstop-mRNA; assay: Toeprinting assay on MLIFstop-mRNA; assay type: biochemical; conditions: 0.5-100 µM, toeprinting in duplicate, 30 min at 37 °C
Source text: To investigate how paenilamicins inhibit translation, we generated PamB2-stalled ribosome complexes (PamB2-SRC) for single-particle cryo-EM analysis. Rather than forming complexes on vacant ribosomes, or with predefined functional states, we instead aimed to use more physiological complexes where translating ribosomes become stalled by PamB2. To achieve this, we performed in vitro translation reactions with E. coli ribosomes using the Met-Leu-Ile-Phe-stop-mRNA (MLIFstop-mRNA), a model template that we had previously used to successfully determine structures of drosocin-stalled ribosomal complexes. Toeprinting was used to monitor the position of ribosomes on the MLIFstop-mRNA in the presence of increasing concentrations of synthetic PamB2 (Extended Data Fig. 2). […] (Extended Data Fig. 2). […] (Extended Data Fig. 2).
Toeprinting reactions for Fig. 4b and Extended Data Fig. 2 were performed as described previously. Briefly, reactions were performed with 6 μl of PURExpress in vitro protein synthesis system (New England Biolabs). The reactions were carried out with different primers and templates (Supplementary Tables 2 and 3). The reactions contained 340 ng of the respective mRNA template and were supplemented with the different compounds as specified. The translation reactions were incubated for 30 min at 37 °C. […]

[2] = test system: eukaryotic in vitro translation; assay: Eukaryotic in vitro translation assay (Rabbit Reticulocyte Lysate System); assay type: biochemical; conditions: 0.01-10 µM
Method: The effect of PamB2 on eukaryotic translation was determined using the Rabbit Reticulocyte Lysate System (Promega) as previously described. Briefly, 6-μl reactions, with or without PamB2 were mixed according to the manufacturer’s description and incubated for 30 min at 32 °C with shaking (600 rpm). Each reaction was stopped by adding 3 μl of cycloheximide (600 μM). All samples were diluted with 40 μl of Luciferase assays substrate (Promega) into a white 96-well chimney flat-bottom microtiter plate (Greiner). The luminescence was then measured using a Tecan Infinite M1000 plate reader. Relative values were determined by defining the luminescence value of the sample without inhibitor as 100%.

[3] = test system: EF-G-dependent translocation on the ribosome; assay: Translocation assay (toeprinting, MFKAFK template); assay type: biochemical; conditions: EF-G present; tRNAfMet in P-site, N-AcPhe-tRNAPhe in A-site; in duplicate
Method: Translocation assays were performed as previously described[22] using the MFKAFK template[45] (Supplementary Table 2). Reactions were prepared by incubating tight-coupled ribosomes (0.7 µM) with mRNA (0.5 µM) and tRNAi^Met (1 µM) for 20 min at 37 °C in the Pure System Buffer (5 mM potassium phosphate (pH 7.3), 9 mM Mg(OAc)2, 95 mM potassium glutamate, 5 mM NH4Cl, 0.5 mM CaCl2, 1 mM spermidine, 8 mM putrescine and 1 mM dithiothreitol) and for additional 10 min at 37 °C with 2 μM of N-acetyl-Phe-tRNA^Phe. At the time of N-acetyl-Phe-tRNA^Phe addition, the reactions were supplemented with PamB2 or negamycin as specified. The translocation reaction was initiated by addition of 1 µl of EF-G–GTP mixture (1.2 µM and 3.2 mM). After 5 min of incubation at 30 °C, 2 µl of reverse transcriptase and/or dNTPs mixture was added. The reactions were stopped after another 5 min at 30 °C by addition of 200 µl of the stop buffer and subsequent phenol extraction. The obtained complementary DNA was precipitated in ethanol for subsequent gel electrophoresis.

[4] = test system: fungi; conditions: cited from earlier work
Source text: In the A-site, PamB2 contacts not only with 16S rRNA nucleotides in h44, but also A1913 from H69 of the 23S rRNA, and, in contrast to the P-site, the compound makes extensive interactions with the A-site tRNA, albeit less with the mRNA codon (Fig. 2c–f). Interactions of PamB2 with the A-site tRNA revolve around nucleotides ct^6A37 and A38, which are located in the anticodon-stem loop, directly adjacent to the anticodon (34CAU36) (Fig. 2e,f). Specifically, three direct hydrogen bonds are possible with A38 (Fig. 2e). Interactions with ct^6A37 are indirect, being mediated by water W6, which is co ...

paenilamicin B2 [PamB2]
ribosome stalling on MLIFstop-mRNA [1]: gradual loss of ribosomes at the AUG codon and an increase in ribosomes stalled one codon further with the UUG (Leu) codon in the P-site | inhibition of eukaryotic in vitro translation (in words) [2]: efficiently inhibits eukaryotic in vitro translation | EF-G dependent translocation (toeprint shift) [3]: little to no shift in the toeprint band | antifungal activity [4]: antifungal activity
